Reference: patent US4565811A, “Sodium salt of ursodeoxycholic sulphate” (Istituto Biologico Chemioterapico "ABC" S.p.A., priority 1983, dated 1986)
Read-outs that look alike come from different tables or passages of the source.

How the values were obtained:
[1] = system: hyperdislipidemia caused by Triton WR-1339 in the rat; experiment: Action on the hyperdislipidemia caused by Triton WR-1339 in the rat; assay type: in vivo, Albinus rats (Witar); details: for Alfa-Lipoproteins: Increase towards Group 2 / Beta-Lipoproteins: Inhibition towards Group 2 / Beta/alfa ratio: Inhibition towards Group 2 / Total cholesterol: Inhibition in comparison with Group 2 / Total lipids: Inhibition in comparison with Group 2 / Triglycerids: Inhibition in comparison with Group 2: vs Group 2 (Triton control)
Procedure: Action on the hyperdislipidemia caused by Triton WR-1339 in the rat
Albinus rats (Witar) of 300-320 g each, having been fed only with water "ad libitum" for 12 hours, were treated with US and UA, by oral route, 4 hours before and 15 hours after the administration intraperitenously of Triton WR-1339 at the dosage of 300 mg/kg in 10 ml/kg of physiologic solution at 0.9%.
US and UA dosages were 25, 50 and 100 mg/kg respectively and the rats were divided in the following groups of 10 animals each.
Group 1: Controls treated with 10 ml/kg of physiological solution at 0.9% orally.
Group 2: Controls treated with 300 mg/kg of Triton WR-1339 i.p. and 10 ml/kg of carboxy methyl cellulose (CMC) at 0.5%.
Group 3, 4 and 5: UA at 25, 50 and 100 mg/kg respectively suspended in 10 ml/kg of CMC at 0.5%.
Groups 6, 7 and 8: US at 25, 50 and 100 mg/kg respectively dissolved in 10 ml/kg of physiologic solution.
The following Tables 1 and 2 list the results of blood-tests from addominal aorta of rats sacrificed 5 hours after the last treatment: […]

[2] = known compounds; cited from earlier work
[3] = cited from earlier work
[4] = Solubility in water / acidity; assay type: physicochemical
[5] = 25 mg/kg os, Triton WR-1339 rat
[6] = 50 mg/kg os, Triton WR-1339 rat
[7] = 100 mg/kg os, Triton WR-1339 rat

C[C@H](CCC(=O)O)[C@H]1CC[C@H]2[C@@H]3[C@@H](O)C[C@@H]4C[C@H](O)CC[C@]4(C)[C@H]3CC[C@]12C [UA, ursodeoxycholic acid, reference compound]
Alfa-Lipoproteins Average ± SD [1, 5]: 27,6 ± 9,8 mg/100 ml serum
Beta-Lipoproteins Average ± SD [1, 5]: 221,17 ± 38,4 mg/100 ml serum
Beta/alfa ratio Average ± SD [1, 5]: 8,95 ± 3,5 mg/100 ml serum
Total cholesterol Average ± SD [1, 5]: 244,8 ± 34,5 mg/100 ml serum
Total lipids Average ± SD [1, 5]: 3011,4 ± 513,6 mg/100 ml serum
Triglycerids Average ± SD [1, 5]: 1167,14 ± 180,5 mg/100 ml serum
Alfa-Lipoproteins: Increase towards Group 2 ([1]; 25 mg/kg os): +23,2%
Beta-Lipoproteins: Inhibition towards Group 2 ([1]; 25 mg/kg os): -19,1%
Beta/alfa ratio: Inhibition towards Group 2 ([1]; 25 mg/kg os): -28,2%
Total cholesterol: Inhibition in comparison with Group 2 ([1]; 25 mg/kg os): -15,9%
Total lipids: Inhibition in comparison with Group 2 ([1]; 25 mg/kg os): -21,1%
Triglycerids: Inhibition in comparison with Group 2 ([1]; 25 mg/kg os): -11,0%
Alfa-Lipoproteins Average ± SD [1, 6]: 41,7 ± 11,3 mg/100 ml serum
Beta-Lipoproteins Average ± SD [1, 6]: 133,7 ± 60,4 mg/100 ml serum
Beta/alfa ratio Average ± SD [1, 6]: 3,88 ± 1,73 mg/100 ml serum
Total cholesterol Average ± SD [1, 6]: 175,47 ± 54,26 mg/100 ml serum
Total lipids Average ± SD [1, 6]: 2517,3 ± 557,6 mg/100 ml serum
Triglycerids Average ± SD [1, 6]: 893,6 ± 298,1 mg/100 ml serum
Alfa-Lipoproteins: Increase towards Group 2 ([1]; 50 mg/kg os): +86,1%
Beta-Lipoproteins: Inhibition towards Group 2 ([1]; 50 mg/kg os): -51,2%
Beta/alfa ratio: Inhibition towards Group 2 ([1]; 50 mg/kg os): -68,8%
Total cholesterol: Inhibition in comparison with Group 2 ([1]; 50 mg/kg os): -40,7%
Total lipids: Inhibition in comparison with Group 2 ([1]; 50 mg/kg os): -34,1%
Triglycerids: Inhibition in comparison with Group 2 ([1]; 50 mg/kg os): -31,9%
Alfa-Lipoproteins Average ± SD [1, 7]: 39,64 ± 11,4 mg/100 ml serum
Beta-Lipoproteins Average ± SD [1, 7]: 115,5 ± 58,7 mg/100 ml serum
Beta/alfa ratio Average ± SD [1, 7]: 3,41 ± 2,29 mg/100 ml serum
Total cholesterol Average ± SD [1, 7]: 155,2 ± 50,3 mg/100 ml serum
Total lipids Average ± SD [1, 7]: 2241,14 ± 517,4 mg/100 ml serum
Triglycerids Average ± SD [1, 7]: 628,8 ± 223,0 mg/100 ml serum
Alfa-Lipoproteins: Increase towards Group 2 ([1]; 100 mg/kg os): +76,8%
Beta/alfa ratio: Inhibition towards Group 2 ([1]; 100 mg/kg os): -72,6%
Total cholesterol: Inhibition in comparison with Group 2 ([1]; 100 mg/kg os): -47,6%
Total lipids: Inhibition in comparison with Group 2 ([1]; 100 mg/kg os): -41,3%
Triglycerids: Inhibition in comparison with Group 2 ([1]; 100 mg/kg os): -52,1%
Dose dependence of activity inhibiting the hyperdislipidemia ([1]; 25, 50 and 100 mg/kg oral, Triton WR-1339 rat): depends on the dosage
Solubility in water [2]: pratically insoluble in water
Effect on cholesterol stones ([3]; bile saturated with cholesterol): prevents the formation of cholesterol stones
Dissolution of radiotransparent stones ([3]; under suitable conditions): able to dissolve under suitable conditions the radiotransparent stones

CC(CCC(=O)O)C1CCC2C3C(OS(=O)(=O)O)CC4CC(OS(=O)(=O)O)CCC4(C)C3CCC12C (stereo not drawn) [ursodeoxycholic O-sulphate]
Acidity ([4]; free acid): very high acidity
Solubility in water [4]: very soluble in water
Solubility in water ([4]; listed as ursosulphate acid): very soluble in water with acid reaction
